Key:
Apo B secretion = test: Measurement of Inhibition of Apo B Secretion; assay type: cell-based; conditions: Homo sapiens; HepG2 cells, 10^−8 M test compound, 15-hour incubation, Apo B in media by ELISA, 0.1% DMSO treated cells as controls
Experimental: Test 1: Measurement of Inhibition of Apo B Secretion
HepG2 cells were seeded in Eagles medium containing 10% fetal calf serum (FCS) at a density of 30000 cells/well in 96-well plates and allowed to grow for 3 days before treatment. At this time, the medium was replaced with fresh medium containing 0.1% dimethyl sulfoxide (DMSO) and the indicated concentrations of a test compound. After 15-hour incubation, the amount of Apo B and Apo AI accumulated in the media was determined by ELISA.
The assay was carried out at ambient temperature. A flat bottomed micro ELISA plate (manufactured by Nunc) was coated with an anti Apo B monoclonal antibody solution ([…] in 0.05% carbonate buffer, pH 9.6) by adding the antibody solution at a volume of 100 μl per well. After 1-hour incubation on a plate mixer, the unbound materials were removed by washing the well 3 times with a washing buffer (phosphate buffered saline, pH 7.2 containing 0.1% bovine serum albumin and 0.05% Tween-20). Then 20 μl of […] and 100 μl of a solution of peroxidase coupled anti Apo B antibody were added. After 1-hour incubation on a plate mixer, washing was performed 3 times to remove the unbound materials. A freshly prepared substrate solution (2.5 mg/ml ortho-phenylene diamine and 0.018% H2O2 in 0.11 M Na2HPO4-0.044 M sodium citrate buffer, pH 5.4) at a volume of 200 μl was then added to each well. After 20-minute incubation, the enzyme reaction was terminated by adding 50 μl of 0.5 M sulfuric acid. Absorbance of each well was determined at 490 nm using a microplate reader. Apo B concentration was calculated from a standard curve generated from purified Apo B standard that was run in parallel in the same plate. Inhibition of Apo B secretion by the test compound was calculated taking 0.1% DMSO treated cells as controls.
Measurement of Apo AI was performed similar to that of Apo B, except for diluting the sample 11-fold with a dilution buffer (phosphate buffered saline, pH 7.2 containing 0.5% bovine serum albumin and 0.05% Tween-20).
Apo B secretion inhibitors are identified as compounds that decrease Apo B secretion without affecting the secretion of Apo AI.

ddY-mice = test: Lipid Lowering Effect on ddY-Mice; assay type: in vivo; conditions: male ddY-mice, dose 0.32 mg/kg orally in olive oil, plasma TG 2 hours after administration; (TG increase in drug treated group/TG increase in control group)×100
Experimental: Test 2: Lipid Lowering Effect on ddY-Mice
Male ddY-mice were housed in temperature- and humidity-controlled rooms and fed with laboratory chow. The animals were randomized according to their body weight and food was deprived about 16 hours before experiment. Baseline blood sample was collected from the retro orbital venous plexus then the animals were orally dosed with drugs in olive oil (10 ml/kg). For control group, 10 ml/kg of olive oil was loaded orally. Blood samples were drawn at 2 hours after drug administration for the measurement of triglyceride (TG) elevation. Plasma TG was determined by conventional enzyme method (The triglyceride E-test Wako).
Lipid lowering effects were shown in percent of the TG increase in drug treated group, relative to the TG increase in control group.
Lipid lowering effect(%)=(TG increase in drug treated group/TG increase in control group)×100

SMILES | inhibition at 0.01 µM (Apo B secretion) [%] | TG increase relative to control (%) (ddY-mice)
Cc1ccc(C(=O)Nc2ccc(NCCc3ccccn3)cc2)c(N(C)C)c1 [Example 42, 2-(Dimethylamino)-4-methyl-N-(4-{[2-(2-pyridinyl)ethyl]amino}phenyl)benzamide] | 85.8 | 33
CN(C)c1cc(Cl)ccc1C(=O)Nc1ccc(NCCc2cccc(N)n2)cc1 [Example 435, N-(4-{[2-(6-Amino-2-pyridinyl)ethyl]amino}phenyl)-4-chloro-2-(dimethylamino)benzamide] | 85.9 | 52
Cc1ccc(C(=O)Nc2ccc(NCCn3cccn3)cc2)c(N(C)C)c1 [Example 183, 2-(dimethylamino)-4-methyl-N-(4-{[2-(1H-pyrazol-1-yl)ethyl]amino}phenyl)benzamide] | 81.2 | 27
CC1CCN(c2ncccc2C(=O)Nc2ccc(NCCc3ccccn3)cc2)CC1 [Example 54, 2-(4-Methyl-1-piperidinyl)-N-(4-{[2-(2-pyridinyl)ethyl]amino}phenyl)nicotinamide] | 86.3 | 28
CCc1ccc(C(=O)Nc2ccc(NCCn3cccn3)cc2)c(N(C)C)c1 [Example 473, 2-(Dimethylamino)-4-ethyl-N-(4-{[2-(1H-pyrazol-1-yl)ethyl]amino}phenyl)benzamide] | 75.7 | –
Cc1ccc(C(=O)Nc2ccc(NC(=O)C(C)c3ccccn3)cc2)c(N2CCC(C)CC2)n1 (centres unmarked) [Example 415, 6-Methyl-2-(4-methyl-1-piperidinyl)-N-(4-{[2-(2-pyridinyl)propanoyl]amino}phenyl)nicotinamide] | 76.2 | –
Cc1ccc(C(=O)Nc2ccc(NC(=O)Cn3cccn3)cc2)c(N2CCC(C)CC2)n1 [Example 193, 6-methyl-2-(4-methyl-1-piperidinyl)-N-{4-[(1H-pyrazol-1-ylacetyl)amino]phenyl}nicotinamide] | 71.5 | –
